Peptide text beside a SMILES is read from it. * marks the point of attachment. Cbz = O=C(OCc1ccccc1)*
biological target: rSmeCalp1 (recombinant Schistosoma mekongi calpain 1) (Schistosoma mekongi, UniProt A0A5B8WCQ5); assay: fluorogenic protease assay (AMC release); format: biochemical
Sequence (A0A5B8WCQ5 entry or part of it): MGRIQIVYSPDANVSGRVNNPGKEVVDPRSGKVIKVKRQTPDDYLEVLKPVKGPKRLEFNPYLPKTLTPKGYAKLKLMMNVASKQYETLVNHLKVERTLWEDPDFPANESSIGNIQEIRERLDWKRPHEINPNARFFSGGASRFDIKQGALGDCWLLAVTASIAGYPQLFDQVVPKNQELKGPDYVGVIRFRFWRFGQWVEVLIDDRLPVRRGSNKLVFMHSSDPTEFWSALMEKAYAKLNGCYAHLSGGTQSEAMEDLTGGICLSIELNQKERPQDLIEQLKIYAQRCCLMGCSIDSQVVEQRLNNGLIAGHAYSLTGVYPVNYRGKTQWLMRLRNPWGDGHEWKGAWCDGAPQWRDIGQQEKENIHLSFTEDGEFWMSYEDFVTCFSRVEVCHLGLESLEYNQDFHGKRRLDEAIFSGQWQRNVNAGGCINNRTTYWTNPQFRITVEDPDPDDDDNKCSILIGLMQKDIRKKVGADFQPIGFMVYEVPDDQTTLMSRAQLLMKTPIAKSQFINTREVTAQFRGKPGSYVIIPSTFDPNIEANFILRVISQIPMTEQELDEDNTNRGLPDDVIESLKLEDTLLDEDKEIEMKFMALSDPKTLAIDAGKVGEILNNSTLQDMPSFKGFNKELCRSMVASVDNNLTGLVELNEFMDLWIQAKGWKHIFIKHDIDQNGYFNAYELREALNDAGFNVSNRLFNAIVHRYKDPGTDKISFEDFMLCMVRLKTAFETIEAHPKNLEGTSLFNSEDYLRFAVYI

Row | inhibition at 100 µM | Compound
1 | 94% | CC(C)[C@H](NC(=O)OCc1ccccc1)C(=O)N[C@H](C=O)Cc1ccccc1 [MDL28170] (Cbz-Val-Phe-aldehyde)
2 | 87% | CC(C)CCNC(=O)[C@H](CC(C)C)NC(=O)[C@H]1O[C@@H]1C(=O)O [E64c]

Row | Compound | inhibition at 100 µM
3 | CC(C)C[C@H](NC(=O)[C@@H]1O[C@H]1C(=O)O)C(=O)NCCCCN=C(N)N [E64] | 98%
